Each structure is given as a SMILES string. Activity calls are given as the source filed them. No cut-off for these calls is given here.

Broadly, the IC50 is the concentration at which inhibition is half-maximal.

The target in test [1] is 3',5'-cyclic-AMP phosphodiesterase 4B (Homo sapiens, UniProt Q07343). The test can be described thus: Inhibition of core catalytic domain of PDE4B.
A further test is filed under the species Homo sapiens. Description: Selectivity ratio of IC50 for core catalytic domain of PDE4B to IC50 for core catalytic domain of PDE3A.
Test [2] concerns the target cGMP-inhibited 3',5'-cyclic phosphodiesterase 3A (Homo sapiens, UniProt Q14432). The test can be described thus: Inhibition of core catalytic domain of PDE3A.
In test [3] the test system is Cavia porcellus. The test can be described thus: Bronchodilatory activity in guinea pig assessed as reduction of histamine-induced bronchoconstriction at 0.1 mg/kg, po relative to control. Format: functional.
The test system of test [4] is Cavia porcellus. Description: Bronchodilatory activity in guinea pig assessed as reduction of histamine-induced bronchoconstriction at 0.3 mg/kg, iv relative to control. Format: functional. Set-up: scale not given: the % may be the effect or the level left.

3',5'-cyclic-AMP phosphodiesterase 4B, sequence (Q07343 whole entry, the tested form may be a part): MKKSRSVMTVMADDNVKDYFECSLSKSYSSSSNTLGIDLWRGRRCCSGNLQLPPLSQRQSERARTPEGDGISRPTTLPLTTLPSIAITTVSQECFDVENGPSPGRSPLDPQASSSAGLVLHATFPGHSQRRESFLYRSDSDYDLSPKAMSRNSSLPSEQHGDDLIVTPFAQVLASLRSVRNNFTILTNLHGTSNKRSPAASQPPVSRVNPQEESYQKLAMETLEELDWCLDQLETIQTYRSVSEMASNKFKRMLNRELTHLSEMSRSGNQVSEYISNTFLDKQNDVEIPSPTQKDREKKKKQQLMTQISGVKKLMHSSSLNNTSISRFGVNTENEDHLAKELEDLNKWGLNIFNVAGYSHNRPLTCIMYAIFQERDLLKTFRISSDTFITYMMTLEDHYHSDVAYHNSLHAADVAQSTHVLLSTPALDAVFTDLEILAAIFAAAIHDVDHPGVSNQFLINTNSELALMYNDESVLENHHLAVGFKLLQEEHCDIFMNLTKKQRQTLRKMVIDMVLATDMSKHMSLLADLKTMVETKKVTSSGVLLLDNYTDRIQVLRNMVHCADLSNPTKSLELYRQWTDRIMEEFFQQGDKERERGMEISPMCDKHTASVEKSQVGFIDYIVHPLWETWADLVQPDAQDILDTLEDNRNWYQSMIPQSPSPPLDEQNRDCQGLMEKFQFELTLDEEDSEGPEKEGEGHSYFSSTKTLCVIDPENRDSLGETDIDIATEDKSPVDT
cGMP-inhibited 3',5'-cyclic phosphodiesterase 3A, sequence (Q14432 whole entry, the tested form may be a part): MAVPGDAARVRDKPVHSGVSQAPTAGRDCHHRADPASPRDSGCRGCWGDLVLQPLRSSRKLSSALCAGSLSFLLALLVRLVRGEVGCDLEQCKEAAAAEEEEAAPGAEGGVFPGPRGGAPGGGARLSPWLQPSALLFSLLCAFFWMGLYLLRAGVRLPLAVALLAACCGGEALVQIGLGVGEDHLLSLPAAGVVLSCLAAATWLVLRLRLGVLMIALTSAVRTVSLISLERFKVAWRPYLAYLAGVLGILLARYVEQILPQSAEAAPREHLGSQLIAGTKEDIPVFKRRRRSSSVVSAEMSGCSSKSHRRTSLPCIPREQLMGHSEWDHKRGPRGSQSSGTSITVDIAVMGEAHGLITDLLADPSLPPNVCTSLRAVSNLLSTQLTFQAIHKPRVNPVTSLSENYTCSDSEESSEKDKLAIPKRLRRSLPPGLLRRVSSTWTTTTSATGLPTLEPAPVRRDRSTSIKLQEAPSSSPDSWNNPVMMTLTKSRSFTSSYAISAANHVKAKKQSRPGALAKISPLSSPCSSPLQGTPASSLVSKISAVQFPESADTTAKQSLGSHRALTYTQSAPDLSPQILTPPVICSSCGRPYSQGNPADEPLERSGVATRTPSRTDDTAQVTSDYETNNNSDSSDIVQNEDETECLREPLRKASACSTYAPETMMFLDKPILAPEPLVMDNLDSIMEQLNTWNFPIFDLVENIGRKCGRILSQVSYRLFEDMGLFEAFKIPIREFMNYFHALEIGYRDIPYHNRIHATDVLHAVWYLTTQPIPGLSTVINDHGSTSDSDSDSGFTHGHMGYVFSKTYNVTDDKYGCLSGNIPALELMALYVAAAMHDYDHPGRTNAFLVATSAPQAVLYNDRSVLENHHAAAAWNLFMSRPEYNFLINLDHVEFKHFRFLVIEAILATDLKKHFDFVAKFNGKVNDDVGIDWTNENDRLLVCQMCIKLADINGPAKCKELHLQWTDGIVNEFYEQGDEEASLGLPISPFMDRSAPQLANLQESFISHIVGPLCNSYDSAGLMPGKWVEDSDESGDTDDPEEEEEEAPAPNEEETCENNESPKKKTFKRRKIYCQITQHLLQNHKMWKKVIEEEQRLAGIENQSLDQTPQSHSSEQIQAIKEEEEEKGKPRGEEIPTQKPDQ

As to `CCc1cc2c(C3=NNC(=O)C3(C)C)ccc(NC)n2n1`, the IC50 in test [1] was determined as 15 nM; in test [2] it was 75600 nM. Further, the Ratio IC50 in the test filed under Homo sapiens is 5000.

Regarding `COc1ccc(C2=NNC(=O)C2(C)C)c2cc(C(F)F)nn12`, the half-inhibitory concentration (IC50) in test [1] is 50 nM; in test [2], 3280 nM.

As to `COc1ccc(C2=NNC(=O)C2(C)C)c2sc(C(F)(F)F)nc12`, the 50% inhibitory concentration (IC50) was 63 nM in test [1] and 540 nM in test [2]. In addition, in the test with Cavia porcellus [3], the result was inactive. For the same compound, in the test with Cavia porcellus [4], the Activity was 96%.

`COc1ccc(C2=NNC(=O)C2(C)C)c2cc(C(F)(F)F)nn12`: the half-maximal inhibitory concentration (IC50) worked out at 110 nM in test [1] and 4130 nM in test [2].

With `COc1ccc(C2=NNC(=O)CC2C)c2cc(C(F)(F)F)nn12` (single isomer, unassigned; (-)), the IC50 was 42 nM in test [1] and 360 nM in test [2].

As to `COc1ccc(C2=NNC(=O)C2(C)C)c2cc(C(F)(F)F)oc12`, the results for the half-inhibitory concentration (IC50) in test [1] and in test [2] were 360 nM and 1100 nM, respectively.

In the case of `CCc1cc2c(C3=NNC(=O)C3(C)C)ccc(OC)n2n1`, the IC50 is 410 nM in test [1] and 9210 nM in test [2].

On to `CCc1cc2c(C3=NNC(=O)C3(C)C)ccc(C(C)O)n2n1` (racemic), for which the IC50 is 3.4 nM in test [1] and 1630 nM in test [2].

Take `CCc1cc2c(C3=NNC(=O)CC3C)ccc(OC)n2n1` (racemic): the concentration for half-maximal inhibition (IC50) is 470 nM in test [1] and 11300 nM in test [2].

Turning to `COc1ccc(C2=NNC(=O)C2(C)C)c2ccc(C(F)(F)F)nc12`, the figures for the IC50 in test [1] and in test [2] were 1070 nM and 6650 nM, respectively.

In the case of `CCc1cc2c(C3=NNC(=O)C3(C)C)ccc(CC)n2n1`, the concentration for half-maximal inhibition (IC50) in test [1] stood at 17 nM; in test [2], 2000 nM.

As for `COc1ccc(C2=NNC(=O)C2(C)C)n2cc(C(F)(F)F)nc12`, the half-maximal inhibitory concentration (IC50) in test [1] was determined as 150 nM; in test [2] it was 140 nM. Besides, the Activity is given as over 70% in the test on Cavia porcellus [3] and 100% in the test on Cavia porcellus [4].

In the case of `COc1ccc(C2=NNC(=O)C2(C)C)c2cc(C3CC3)nn12`, the concentration for half-maximal inhibition (IC50) was found to be 150 nM in test [1] and 6170 nM in test [2].

Consider `COc1ccc(C2=NNC(=O)C2(C)C)c2ccnn12`, for which the IC50 in test [1] is 2930 nM; in test [2] it was 10800 nM.

As for `CCc1ccc2c(C3=NNC(=O)C3(C)C)ccc(OC)c2n1`, the IC50 in test [1] is 2580 nM; in test [2], 10100 nM.

As for `COc1ccc(C2=NNC(=O)C2(C)C)c2[nH]c(C(F)(F)F)nc12`, the half-inhibitory concentration (IC50) in test [1] turned out to be 200 nM; in test [2], 14100 nM.

Turning to `CCc1cc2c(C3=NNC(=O)C3(C)C)ccc(C)n2n1`, the IC50 is 160 nM in test [1] and 2370 nM in test [2].

Regarding `CCc1cc2c(C3=NNC(=O)C3(C)C)ccc(SC)n2n1`, the results for the IC50 in test [1] and in test [2] were 79 nM and 9010 nM, respectively.

Take `CCc1cc2c(C3=NNC(=O)C3(C)C)ccc(CO)n2n1`: the IC50 came out at 35 nM in test [1] and 1590 nM in test [2].

Take `COc1ccc(C2=NNC(=O)C2(C)C)c2cc(C(F)(F)F)sc12`: the results for the IC50 in test [1] and in test [2] were 690 nM and 5360 nM, respectively.

Take `CCc1cc2c(C3=NNC(=O)C3(C)C)ccc(C(C)=O)n2n1`: the IC50 in test [1] was determined as 7.5 nM; in test [2] it was 2500 nM.

For the origin of these results see ChEMBL document CHEMBL2069289, “Phosphodiesterase inhibitors. Part 4: design, synthesis and structure-activity relationships of dual PDE3/4-inhibitory fused bicyclic heteroaromatic-4,4-dimethylpyrazolones” (Bioorg Med Chem Lett, 2012).
